Measured values as given in ChEMBL document CHEMBL3351979, “Total Synthesis and Biological Studies of TMC-205 and Analogues as Anticancer Agents and Activators of SV40 Promoter” (ACS Med Chem Lett, 2014).
Calls of active or inactive are those of the source. The calls are words filed in the database; no cut-off is given here.

Key:
[1] = Antiproliferative activity against human HCT116 cells assessed as growth inhibition after 72 hrs by MTS assay; format: functional; conditions: HCT-116, 72 h
HeLa [2] = assay: Induction of SV40 promoter-mediated luciferase gene expression in human HeLa cells at 0.01 to 100 uM after 24 hrs by luminescence assay; format: cell-based; conditions: Betapolyomavirus macacae
HeLa [3] = assay: Induction of SV40 promoter-mediated luciferase gene expression in human HeLa cells co-expressing SV40 enhancer at 0.01 to 100 uM after 24 hrs by luminescence assay; format: cell-based; conditions: Betapolyomavirus macacae
HeLa [4] = assay: Growth inhibition of human HeLa cells at 0.01 to 100 uM after 24 hrs; format: cell-based
[5] = Stability of the compound by HPLC analysis; format: physicochemical
[6] = target: T1, Luciferin 4-monooxygenase (Luciola lateralis) (UniProt Q01158); assay: Inhibition of recombinant firefly luciferase at 0.0001 to 100 uM by […] in presence of varying concentration of D-luciferin; conditions: Aquatica lateralis
T1 sequence (whole entry): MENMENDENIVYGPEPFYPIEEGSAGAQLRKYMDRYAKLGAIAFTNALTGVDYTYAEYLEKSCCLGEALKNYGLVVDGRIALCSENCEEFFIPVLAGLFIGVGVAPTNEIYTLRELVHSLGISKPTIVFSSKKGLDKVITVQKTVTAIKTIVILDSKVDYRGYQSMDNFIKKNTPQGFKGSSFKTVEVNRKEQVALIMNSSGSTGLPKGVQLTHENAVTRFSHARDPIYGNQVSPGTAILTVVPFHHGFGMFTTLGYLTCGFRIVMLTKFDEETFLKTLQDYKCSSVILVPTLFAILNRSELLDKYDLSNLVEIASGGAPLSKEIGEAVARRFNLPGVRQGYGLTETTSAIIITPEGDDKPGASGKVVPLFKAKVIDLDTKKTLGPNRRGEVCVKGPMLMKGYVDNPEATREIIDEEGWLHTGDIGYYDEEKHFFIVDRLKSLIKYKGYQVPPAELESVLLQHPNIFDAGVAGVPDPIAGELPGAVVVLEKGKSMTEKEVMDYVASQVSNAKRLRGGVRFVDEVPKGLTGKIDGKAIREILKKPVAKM

[7] = target: T1, Luciferin 4-monooxygenase (Luciola lateralis); assay: Inhibition of recombinant firefly luciferase at 0.0001 to 100 uM by […] in presence of varying concentration of ATP; conditions: Aquatica lateralis
HeLa [8] = assay: Induction of SV40 promoter-mediated luciferase gene expression in human HeLa cells after 24 hrs by RT-PCR analysis; format: cell-based; conditions: Betapolyomavirus macacae
HeLa [9] = assay: Induction of SV40 promoter-mediated luciferase gene expression in human HeLa cells at 10 to 100 uM after 24 hrs by RT-PCR analysis; format: cell-based; conditions: Betapolyomavirus macacae

| Structure (SMILES) | GI50 [1] [µM] | Activity (HeLa [2]) | Activity (HeLa [3]) | Activity (HeLa [4]) | further results |
| --- | --- | --- | --- | --- | --- |
| CC(C)CCc1ccc2c(C(=O)O)c[nH]c2c1 | > 500 |  |  |  |  |
| C=C(C)/C=C/c1ccc2c(C(=O)O)c[nH]c2c1 | 68 | inactive | Active | Non-toxic |  |
| CC(C)(O)/C=C/c1ccc2c(C(=O)C(F)(F)F)c[nH]c2c1 | > 500 |  |  |  |  |
| C=C(C)/C=C/c1ccc2c(C(=O)C(F)(F)F)cn(C)c2c1 | > 500 |  |  |  |  |
| C=C(C)/C=C/c1ccc2c(C(=O)C(F)(F)F)c[nH]c2c1 | 39 | inactive | Active | Non-toxic | Stability [5]: Stable; inhibition [6]: inactive; inhibition [7]: Active; Activity (HeLa [8]): Dose-dependent effect |
| C=C(C)/C=C/c1ccc2c(CO)c[nH]c2c1 | 79 |  |  |  |  |
| CC(O)/C=C/c1ccc2c(C(=O)C(F)(F)F)c[nH]c2c1 (stereo not given) | 8 | inactive | Active | Non-toxic |  |
| Oc1ccc(/C=C/c2cc(O)cc(O)c2)cc1 |  |  |  |  | inhibition [6]: Active; inhibition [7]: Active; Activity (HeLa [9]): Active |
| C=C(C)/C=C/c1ccc2cc[nH]c2c1 | 147 |  |  |  |  |
| CC(=O)/C=C/c1ccc2c(C(=O)C(F)(F)F)c[nH]c2c1 | 14 |  |  |  |  |
